≈ marks a conversion by molar mass, not a printed value. Like-named read-outs stand apart in the source and are kept apart here.
Assays:
[1] = system: Candida albicans SKF 2270; test: MIC by broth microdilution (NCCLS), with or without 30% bovine serum (Example 19); format: cell-based; settings: Candida albicans, SKF2270
Experimental: MICs were determined by the broth microdilution methodology following the standard NCCLS procedure (NCCLS Document M7-A6, Vol. 23, No. 2, “Methods for dilution antimicrobial susceptibility tests for bacteria that grow aerobically.” Approved Guideline. January 2003, which can be herein incorporated by reference in its entirety), with or without 30% adult bovine serum (BS) (PAA Laboratories GmBH, Haidmannweg Pasching Austria), using bacterial innocula at approximately 5×10^5 CFU/ml. The media employed included cation-adjusted Müller Hinton broth (Difco Laboratories, Detroit, Mich.) that was used that was adjusted with CaCl2 and MgCl2 to a final concentration of 20 mg/L and 10 mg/L, respectively. Tests were read following 20-24 hours of incubation at 35° C.

gram positive bacteria = test: as above; format: cell-based
Experimental: (§1) The compounds were prepared according to the examples above and the methods described in U.S. Patent Application Publication No. 2004/0142883. Individual dalbavancin compounds were purified by HPLC. […] Before dissolution, each sample was analyzed by HPLC and quantified. […] Louis, Mo.), Gentamycin (GE) (Sigma Chemical Co., St. Louis, Mo.), Penicillin G (Pen.G) (Sigma Chemical Co., St. Louis, Mo.), and Amphotericin B (Amph.B) (Sigma Chemical Co., St. Louis, Mo.). The microorganisms used were reference strains obtained from the American Type Culture Collection (ATCC) (Rockville, Md.), SmithKline and French Laboratories (SKF), and the Upjohn Company (UC) (Kalamazoo, Mich.).

gram-negative bacteria [2] = test: as above; format: cell-based
Experimental: as §1

MRSA Staph. aureus 3817 = test: MIC (microbiological activity); format: cell-based; settings: Staphylococcus aureus
[3] = system: CR-BSI due to gram-positive bacterial pathogens; test: Catheter-related blood stream infection (CR-BSI) trial: efficacy; format: in vivo, human; settings: microbiological ITT population; dalbavancin 1000 mg day 1 + 500 mg day 8 IV; vancomycin 1000 mg IV every 12 hours
Excerpt: This study evaluated the safety and efficacy (clinical and microbiological) of a weekly dosing regimen of dalbavancin in the treatment of adults with catheter-related blood stream infection (CR-BSI) due to gram-positive bacterial pathogens, relative to the standard care of treatment, vancomycin.
Patients with CR-BSI due to suspected or known Gram-positive pathogen(s) who met the inclusion/exclusion criteria were randomized to one of two treatment arms in this open-label, comparative, multi-center study. Dalbavancin was administered once weekly in weekly dalbavancin and comparator (vancomycin) was administered daily in vancomycin. Catheter removal was required for patients with Staphylococcus aureus infection; catheter management was left to the Investigator's discretion for patients with coagulase-negative staphylococci (CoNS) infection. Efficacy was clinically based on the improvement or resolution of clinical signs and symptoms of CR-BSI such that no additional antibacterials were warranted, and microbiologically on the eradication or presence of the baseline or other pathogens. […]
Efficacy was evaluated based on clinical and microbiological responses.
For the primary efficacy analysis, 95% confidence intervals were also determined, and for prognostic factor analyses using the primary efficacy variable, logistic regression was used.

gram-negative bacteria [4] = test: MIC by broth microdilution (NCCLS), IsoB0 and reference compounds; format: cell-based
Experimental: (§2) MICs were determined by the broth microdilution methodology following the standard NCCLS procedure, with or without 30% bovine serum, using bacterial inocula of approximately 5×10^5 CFU/mL. Tests were read after 20-24 h incubation at 35° C.

gram-positive bacteria = test: as above; format: cell-based
Experimental: Müller Hinton broth (Difco Laboratories, Detroit, Mich., USA) adjusted with CaCl2 and MgCl2 to a final concentrations of 20 mg/L and 10 mg/L respectively.
Adult bovine serum (BS) (batch A05123-159 PAA Laboratories GmBH Haidmannweg Pasching Austria).
The microorganisms used are reference standard strains from the American Type Culture Collection (ATCC, Rockville, USA), Smith Kline and French Laboratories (SKF) and the Upjohn Company (UC, Kalamazoo, Mich., USA).
as §2

Candida albicans SKF2270 = test: as above; format: cell-based
[5] = system: MSSA Staph. aureus Smith 819; test: MIC (microbiological activity); format: cell-based; settings: Staphylococcus aureus
[6] = ESI mass spectroscopy of multimers in solution; format: physicochemical; settings: ESI-MS
Experimental: Experiments were performed using an Applied Biosystem API III+ mass spectrometer equipped with a TurbolonSpray source, a Triple Quadrupole analyzer, operating in positive ion mode.
The mass spectra were obtained in electrospray positive mode on a Finnigan LCQ^Deca ion trap instrument previously tuned and calibrated in electrospray mode using Ultramark 1621, caffeine and MRFA (L-metionyl-arginyl-phenilalanyl-arginine).

human α-glycoprotein = test: Protein binding by isothermal titration microcalorimetry; settings: 25° C.
Experimental: For comparison, similar experiments with some necessary modifications were performed using teicoplanin.
Teicoplanin was studied with human albumin and α-glycoprotein.
Integrated heat effects, after correction for heats of dilution, were analyzed by non-linear regression using a simple single-site binding model with the standard Microcal ORIGIN software package. Raw data (μcal/sec) for each injection were integrated to give the total heat effect per addition, then divided by amount of injectant to give kcal/mole of injectant. The same integration was applied for control dilution effects, and this was subtracted from the actual titration data. This provided a differential of the binding curve in which the extent of binding is proportional to the total heat liberated (or absorbed). This was then analyzed by non-linear regression methods in terms of various standard binding models. The simplest model assumes simple non-competitive binding equilibrium, and gives three parameters:

[7] = Enterococcus faecalis, ATCC7080
[8] = Enterococcus faecalis, ATCC29212
[9] = Staphylococcus aureus, ATCC19636
[10] = Staphylococcus aureus, ATCC29213
[11] = Staphylococcus epidermidis, ATCC12228

## CN[C@H](CC(C)C)C(=O)N[C@H]1C(=O)N[C@@H](CC(N)=O)C(=O)N[C@H]2C(=O)N[C@H]3C(=O)N[C@H](C(=O)N[C@H](C(=O)O)c4cc(O)cc(O)c4-c4cc3ccc4O)[C@H](O)c3ccc(c(Cl)c3)Oc3cc2cc(c3O[C@@H]2O[C@H](CO)[C@@H](O)[C@H](O)[C@H]2O[C@H]2C[C@](C)(N)[C@H](O)[C@H](C)O2)Oc2ccc(cc2Cl)[C@H]1O [Vancomycin, vancomycin, reference compound]
[1]
  MIC: > 128 µg/mL
Gram positive bacteria
  MIC: 1 µg/mL (≈ 0.69 µM)
Gram positive bacteria; [7]
  MIC: 1 µg/mL (≈ 0.69 µM)
Gram positive bacteria; [8]
  MIC: 2 µg/mL (≈ 1.38 µM)
Gram positive bacteria; [9]
  MIC: 1 µg/mL (≈ 0.69 µM)
Gram positive bacteria; [10]
  MIC: 2 µg/mL (≈ 1.38 µM)
Gram positive bacteria; [11]
  MIC: 2 µg/mL (≈ 1.38 µM)
Gram positive bacteria; Streptococcus pneumoniae, UC41
  MIC: 0.5 µg/mL (≈ 0.345 µM)
gram-negative bacteria [2]
  MIC: > 128 µg/mL
gram-negative bacteria [2]; Escherichia coli
  MIC: > 128 µg/mL
gram-negative bacteria [2]; Escherichia coli, ATCC25922
  MIC: > 128 µg/mL
gram-negative bacteria [2]; Proteus vulgaris, ATCC881
  MIC: > 128 µg/mL
MRSA Staph. aureus 3817
  MIC: 0.5 µg/mL (≈ 0.345 µM)
[3]
  overall response success rate at TOC: 50.0%
gram-negative bacteria [4]
  MIC: > 128 µg/mL
gram-negative bacteria [4]; Escherichia coli
  MIC: > 128 µg/mL
gram-negative bacteria [4]; Escherichia coli, ATCC25922
  MIC: > 128 µg/mL
gram-negative bacteria [4]; Proteus vulgaris, ATCC881
  MIC: > 128 µg/mL
gram-positive bacteria; [7]
  MIC: 1 µg/mL (≈ 0.69 µM)
gram-positive bacteria; [8]
  MIC: 2 µg/mL (≈ 1.38 µM)
gram-positive bacteria; [9]
  MIC: 1 µg/mL (≈ 0.69 µM)
gram-positive bacteria; [10]
  MIC: 2 µg/mL (≈ 1.38 µM)
gram-positive bacteria; [11]
  MIC: 2 µg/mL (≈ 1.38 µM)
gram-positive bacteria; Streptococcus pneumoniae, UC41
  MIC: 0.5 µg/mL (≈ 0.345 µM)
gram-positive bacteria; Streptococcus pyogenes
  MIC: 1 µg/mL (≈ 0.69 µM)
Candida albicans SKF2270
  MIC: > 128 µg/mL
[5]
  MIC: 0.5 µg/mL (≈ 0.345 µM)

## teicoplanin
[6]
  multimers in solution: does not show multimeric complexes
Human α-glycoprotein
  apparent binding affinity Ka, α-glycoprotein: 0.07 (±0.01) × 10^5M^−1
